According to patent publication US20200360317A1, “CARBOXYLIC ACIDS FOR TREATING/PREVENTING A SKIN DISEASE” (Proponent Biotech GmbH, priority 2016, published 2020):

Tests used:
[1] = system: wound infection of injured skin; experiment: Treatment of infected wound of injured skin; format: in vivo; details: skin treated with propionate vs skin treated with water
From the text: The study aimed at determining whether treatment with propionate promotes skin health of wound infection of injured skin.

[2] = in Locke-Ringer Solution
From the text: • Identification: Sodium propionate (Sigma-Aldrich, Cat. P5436-100G) • Test Item Name for Report: Sodium propionate • Description: Hygroscopic white powder • Batch Number: Lot.

[3] = system: allergic hypersensitivity induced by Nickel allergen (skin); experiment: Nickel-induced allergic contact dermatitis, topical treatment, blinded clinical score of skin lesion; format: in vivo, human; details: 4×140 μl of 50 mM Propionate in Locke-Ringer solution over 8 hours, 60 hours after last Nickel contact; vs Locke-Ringer control; n=2
Experimental: The study aimed at determining whether treatment with propionate promotes skin health following allergic hypersensitivity (particularly allergic contact dermatitis).
Allergic hypersensitivity was induced through contact sensitization with Nickel allergen over a 12 hour time period.
The sum of the four scores given blinded to each subject (n=2) yielded in the clinical score. The results can be seen in FIGS. 1 and 2.

CCC(=O)[O-].[Na+] [Sodium propionate]
Appearance of skin lesions (FIG. 4) [1]: lesions are significantly reduced
Stability of Test Item in Solution [2]: ≥ 6 months
Clinical score of skin lesion (sum of four scores) [3]: clinical score was significantly reduced
